Values of other authors as cited in patent US20040247676A1, “Use of multi-layer controlled-release tablet comprising ropinirole for the manufacture of medicament for the treatment of fibromyalgia” (priority 2001, published 2004).
Where a name gives a salt, the structure may show the parent alone.

System: fibromyalgia
Settings: immediate release formulation

Compound: CCCN(CCC)CCc1cccc2c1CC(=O)N2 [ropinirole hydrochloride]
- effectiveness in the treatment of fibromyalgia: particularly effective
